Data published in patent US20060205826A1, “Method of using carotenoids in the prevention of cognitive decline and for other neuroprotection functions” (priority 2005, published 2006).

What was measured:
[1] = system: GSH; experiment: GSH content in hippocampus homogenate of diabetic mice; type: in vivo; settings: lutein 0.2 mg/kg p.o. or insulin 500 mU/g s.c. on days 4-13
Protocol: Male albino mice were used throughout the study, housed in a environmentally regulated room on a dark-light cycle of 12 hours with free access to food and water. Principles of laboratory animal care (NIH publication no. 85-23, revised 1985) were followed, as well as specific Spanish regulations. Animals were made diabetic with a single subcutaneous injection of 200 mg alloxan/kg body weight (66 mg/ml) in 0.1 M citrate buffer, pH 4.5, at day 0 of the experiment. Control mice were injected with the same volume of vehicle also at day 0 of the experiment.
Mice were identified as diabetic on the basis of blood glucose levels (higher than 16 mM at least 4 days after alloxan treatment). Animals were divided into subgroups as required by the experiment (control, control+lutein, diabetic, diabetic+lutein, diabetic+insulin, diabetic+insulin+lutein). Lutein was administered daily at a dose of 0.2 mg/kg p.o since day 4 after alloxan or citrate buffer injection until the end of the experiment. […] Glycated hemoglobin was determined in blood samples obtained by heart puncture immediately before killing the animals.
The GSH content of eye homogenate was quatitated by the method of Reed et al. (Reed et al., 1980). […] These products are quickly separated by HPLC which allows the quantification of nanomolars levels of GSH.

[2] = system: alloxan diabetic mice; experiment: Hyperglycemic status (blood glucose) of alloxan diabetic mice; type: in vivo; settings: for glycemia: diabetic mice
Protocol: Male albino mice were used throughout the study, housed in a environmentally regulated room on a dark-light cycle of 12 hours with free access to food and water. Principles of laboratory animal care (NIH publication no. 85-23, revised 1985) were followed, as well as specific Spanish regulations. Animals were made diabetic with a single subcutaneous injection of 200 mg alloxan/kg body weight (66 mg/ml) in 0.1 M citrate buffer, pH 4.5, at day 0 of the experiment. Control mice were injected with the same volume of vehicle also at day 0 of the experiment. Mice were identified as diabetic on the basis of blood glucose levels (higher than 16 mM at least 4 days after alloxan treatment). Animals were divided into subgroups as required by the experiment (control, control+lutein, diabetic, diabetic+lutein, diabetic+insulin, diabetic+insulin+lutein). […] Insulin treated animals were injected daily with 500 mU/g body weight since day 4 until the end of the experiment. Mice were killed by cervical dislocation on day 14, and hippocampus and retina were removed and homogenized in pre-chilled 0.2 M potassium phosphate buffer, pH 7.0. These homogenates were used to assay protein, GPx activity and MDA and GSH concentrations. Samples were kept frozen (−80° C.) until biochemical assays were performed. Blood was taken from the tail vein daily to assay blood glucose levels. Glycated hemoglobin was determined in blood samples obtained by heart puncture immediately before killing the animals.

[3] = system: alloxan diabetic mice; experiment: Morris water maze (spatial learning and memory) in diabetic mice; type: in vivo
Protocol: Male albino mice were used throughout the study, housed in a environmentally regulated room on a dark-light cycle of 12 hours with free access to food and water. Principles of laboratory animal care (NIH publication no. 85-23, revised 1985) were followed, as well as specific Spanish regulations. Animals were made diabetic with a single subcutaneous injection of 200 mg alloxan/kg body weight (66 mg/ml) in 0.1 M citrate buffer, pH 4.5, at day 0 of the experiment. Control mice were injected with the same volume of vehicle also at day 0 of the experiment. Mice were identified as diabetic on the basis of blood glucose levels (higher than 16 mM at least 4 days after alloxan treatment). Animals were divided into subgroups as required by the experiment (control, control+lutein, diabetic, diabetic+lutein, diabetic+insulin, diabetic+insulin+lutein). Lutein was administered daily at a dose of 0.2 mg/kg p.o since day 4 after alloxan or citrate buffer injection until the end of the experiment. […] Glycated hemoglobin was determined in blood samples obtained by heart puncture immediately before killing the animals. […] We measured the duration from the time the mouse was dropped into the maze to the time the mouse climbed onto the platform (latency time). The latency was recorded manually using a stopwatch. […] The percentage of time spent in each of the pool quadrants was also recorded.

[4] = system: GPx activity; settings: diabetic animals; Miranda et al., 2004; cited from earlier work
[5] = system: alloxan diabetic mice; settings: diabetic animals; Miranda et al., 2004; cited from earlier work

CC1=C[C@H](O)CC(C)(C)[C@H]1/C=C/C(C)=C/C=C/C(C)=C/C=C/C=C(C)/C=C/C=C(C)/C=C/C1=C(C)C[C@@H](O)CC1(C)C [Lutein]
GSH content in hippocampus homogenate [1]: restored | hyperglycemic status ([2]; alloxan diabetic mice, fourteen days after alloxan injection): did not alter | glycemia ([2]; lutein 0.2 mg/kg p.o. on days 4-13 (hippocampus section)): no effect | glycemia ([2]; lutein 100 mg/kg p.o. on days 4-13 (retina section)): no effect | escape latencies in the Morris water maze [3]: diminished | glutathione peroxidase activity of the retinas [4]: restored | b-wave amplitude of the electroretinogram [5]: restored
